Article PMC3966057 (Theranostics, 2014)

How the values were obtained:
4T1 tumors = experiment: 18F-DPA-714 PET imaging of 4T1 xenograft tumor model; assay type: in vivo, mouse; conditions: PET 1 h p.i., tumor volume 100-300 mm^3, FVB mice, mean ± SD
U87MG tumors = experiment: 18F-DPA-714 PET imaging of U87MG xenograft tumor model; assay type: in vivo, mouse; conditions: PET 1 h p.i., tumor volume 100-300 mm^3, athymic nude mice, mean ± SD
A549 tumors = experiment: 18F-DPA-714 PET imaging of A549 xenograft tumor model; assay type: in vivo, mouse; conditions: PET 1 h p.i., tumor volume 100-300 mm^3, athymic nude mice, mean ± SD
RAW264.7 cells = experiment: RAW 264.7 macrophage cell efflux of 18F-DPA-714; assay type: cell-based, mouse; conditions: 2 h incubation with tracer
HT29 tumors = experiment: 18F-DPA-714 PET imaging of HT29 xenograft tumor model; assay type: in vivo, mouse; conditions: PET 1 h p.i., tumor volume 100-300 mm^3, athymic nude mice, mean ± SD
INS-1 tumors = experiment: 18F-DPA-714 PET imaging of INS-1 xenograft tumor model; assay type: in vivo, mouse; conditions: PET 1 h p.i., tumor volume 100-300 mm^3, athymic nude mice, mean ± SD

4T1 tumor uptake of 18F-DPA-714 (4T1 tumors): 1.22 ± 0.55 %ID/g | U87MG tumor uptake of 18F-DPA-714 (U87MG tumors): 1.69 ± 0.67 %ID/g | A549 tumor uptake of 18F-DPA-714 (A549 tumors): 0.46 ± 0.28 %ID/g | HT29 tumor uptake of 18F-DPA-714 (HT29 tumors): 0.91 ± 0.08 %ID/g | INS-1 tumor uptake of 18F-DPA-714 (INS-1 tumors): 1.13 ± 0.33 %ID/g
Structure (SMILES): CCN(CC)C(=O)Cc1c(-c2ccc(OCC[18F])cc2)nn2c(C)cc(C)nc12 [18F-DPA-714]
Tracer retention after 1 h efflux as share of uptake (RAW264.7 cells): around 50%
